Columns and labels:
Test in all cases: viability relative to DMSO control (fraction); higher = less drug effect (more viable cells)
Conditions in all cases: 48 h
[1] = test system: primary ALL patient cells (S048)
How it was run: (§1)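 Viability is given as CellTiter-Glo luminescence relative to the median of 16 inner DMSO wells. Fresh or cryopreserved primary mononuclear tumour cells from blood, bone marrow (both Ficoll-isolated) or processed lymph node were plated at 4 × 10^4 cells per well in 384-well plates against five pre-plated compound concentrations, one well each. Incubation lasted 48 h at 37 °C and 5% CO2 in RPMI-1640 with penicillin/streptomycin, L-glutamine and human serum.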

[2] = test system: primary AML patient cells (S002)
How it was run: as §1

[3] = test system: primary AML patient cells (S012)
How it was run: as §1

[4] = test system: primary AML patient cells (S017)
How it was run: as §1

[5] = test system: primary AML patient cells (S019)
How it was run: as §1

[6] = test system: primary AML patient cells (S025)
How it was run: as §1

[7] = test system: primary AML patient cells (S037)
How it was run: as §1

[8] = test system: primary AML patient cells (S056)
How it was run: as §1

[9] = test system: primary AML patient cells (S071)
How it was run: as §1

[10] = test system: primary AML patient cells (S072)
How it was run: as §1

[11] = test system: primary AML patient cells (S079)
How it was run: as §1

[12] = test system: primary AML patient cells (S085)
How it was run: as §1

[13] = test system: primary AML patient cells (S089)
How it was run: as §1

[14] = test system: primary AML patient cells (S091)
How it was run: as §1

[15] = test system: primary BL patient cells (S005)
How it was run: as §1

[16] = test system: primary CLL patient cells (S031)
How it was run: as §1

[17] = test system: primary CLL patient cells (S043)
How it was run: as §1

[18] = test system: primary FL patient cells (S022)
How it was run: as §1

[19] = test system: primary MCL patient cells (S053)
How it was run: as §1

[20] = test system: primary MCL patient cells (S068)
How it was run: as §1

`COc1cccc2c1C(=O)c1c(O)c3c(c(O)c1C2=O)C[C@@](O)(C(C)=O)C[C@@H]3O[C@H]1C[C@H](N)[C@H](O)[C@H](C)O1` [Daunorubicin] gave a viability ([1]; 0.0016 µM) of 1.02, a viability ([1]; 0.008 µM) of 0.731 and a viability ([1]; 0.04 µM) of 0.12. The viability ([1]; 0.2 µM) was 0.0694, the viability ([1]; 1 µM) was 0.0144 and the viability ([2]; 0.0016 µM) was 1.04. For the same molecule, the viability ([2]; 0.008 µM) was 0.983, the viability ([2]; 0.04 µM) was 0.505 and the viability ([2]; 0.2 µM) was 0.323. It also gave a viability ([2]; 1 µM) of 0.241, a viability ([3]; 0.0016 µM) of 1 and a viability ([3]; 0.008 µM) of 1.01. It also gave a viability ([3]; 0.04 µM) of 0.968, a viability ([3]; 0.2 µM) of 0.922 and a viability ([3]; 1 µM) of 0.083. For the same molecule, the viability ([4]; 0.0016 µM) was 1.1, the viability ([4]; 0.008 µM) was 1.13 and the viability ([4]; 0.04 µM) was 1.07. The viability ([4]; 0.2 µM) was 0.745, the viability ([4]; 1 µM) was 0.0449 and the viability ([5]; 0.0016 µM) was 1.38. It also gave a viability ([5]; 0.008 µM) of 1.33, a viability ([5]; 0.04 µM) of 0.56 and a viability ([5]; 0.2 µM) of 0.395. The viability ([5]; 1 µM) was 0.102, the viability ([6]; 0.0016 µM) was 1.03 and the viability ([6]; 0.008 µM) was 0.784. It also gave a viability ([6]; 0.04 µM) of 0.453, a viability ([6]; 0.2 µM) of 0.431 and a viability ([6]; 1 µM) of 0.0369. The viability ([7]; 0.0016 µM) was 1.06, the viability ([7]; 0.008 µM) was 1.02 and the viability ([7]; 0.04 µM) was 0.709. The viability ([7]; 0.2 µM) was 0.565, the viability ([7]; 1 µM) was 0.368 and the viability ([8]; 0.0016 µM) was 0.96. For the same molecule, the viability ([8]; 0.008 µM) was 0.881, the viability ([8]; 0.04 µM) was 0.258 and the viability ([8]; 0.2 µM) was 0.146. For the same molecule, the viability ([8]; 1 µM) was 0.0683, the viability ([9]; 0.0016 µM) was 1.04 and the viability ([9]; 0.008 µM) was 0.272. For the same molecule, the viability ([9]; 0.04 µM) was 0.128, the viability ([9]; 0.2 µM) was 0.118 and the viability ([9]; 1 µM) was 0.095. It also gave a viability ([10]; 0.0016 µM) of 1.18, a viability ([10]; 0.008 µM) of 1.04 and a viability ([10]; 0.04 µM) of 0.844. The viability ([10]; 0.2 µM) was 0.589, the viability ([10]; 1 µM) was 0.0642 and the viability ([11]; 0.0016 µM) was 1.03. The viability ([11]; 0.008 µM) was 1.08, the viability ([11]; 0.04 µM) was 0.78 and the viability ([11]; 0.2 µM) was 0.659. It also gave a viability ([11]; 1 µM) of 0.0276, a viability ([12]; 0.0016 µM) of 1.27 and a viability ([12]; 0.008 µM) of 0.865. The viability ([12]; 0.04 µM) was 0.312, the viability ([12]; 0.2 µM) was 0.164 and the viability ([12]; 1 µM) was 0.0173. For the same molecule, the viability ([13]; 0.0016 µM) was 1.09, the viability ([13]; 0.008 µM) was 1.16 and the viability ([13]; 0.04 µM) was 0.289. For the same molecule, the viability ([13]; 0.2 µM) was 0.132, the viability ([13]; 1 µM) was 0.0299 and the viability ([14]; 0.0016 µM) was 0.998. For the same molecule, the viability ([14]; 0.008 µM) was 0.777, the viability ([14]; 0.04 µM) was 0.515 and the viability ([14]; 0.2 µM) was 0.558. The viability ([14]; 1 µM) was 0.0819, the viability ([15]; 0.0016 µM) was 1.06 and the viability ([15]; 0.008 µM) was 1.09. It also gave a viability ([15]; 0.04 µM) of 1.02, a viability ([15]; 0.2 µM) of 0.929 and a viability ([15]; 1 µM) of 0.716. It also gave a viability ([16]; 0.0016 µM) of 0.982, a viability ([16]; 0.008 µM) of 0.809 and a viability ([16]; 0.04 µM) of 0.265. For the same molecule, the viability ([16]; 0.2 µM) was 0.0431, the viability ([16]; 1 µM) was 0.0162 and the viability ([17]; 0.0016 µM) was 1.11. For the same molecule, the viability ([17]; 0.008 µM) was 1.12, the viability ([17]; 0.04 µM) was 0.834 and the viability ([17]; 0.2 µM) was 0.33. It also gave a viability ([17]; 1 µM) of 0.0261, a viability ([18]; 0.0016 µM) of 0.966 and a viability ([18]; 0.008 µM) of 0.964. It also gave a viability ([18]; 0.04 µM) of 0.803, a viability ([18]; 0.2 µM) of 0.331 and a viability ([18]; 1 µM) of 0.304. For the same molecule, the viability ([19]; 0.0016 µM) was 1.12, the viability ([19]; 0.008 µM) was 0.692 and the viability ([19]; 0.04 µM) was 0.363. For the same molecule, the viability ([19]; 0.2 µM) was 0.307, the viability ([19]; 1 µM) was 0.446 and the viability ([20]; 0.0016 µM) was 1.18. It also gave a viability ([20]; 0.008 µM) of 0.943, a viability ([20]; 0.04 µM) of 0.449 and a viability ([20]; 0.2 µM) of 0.252. For the same molecule, the viability ([20]; 1 µM) was 0.0233.

Reference: the supplement of paper PMC10733146
